Literature values as cited in patent publication US11220552B2, “Anti-CD20 combinations for treating tumors” (BIRDIE BIOPHARMACEUTICALS, INC., priority 2016, dated 2022).

Assays:
[1] = tested on: rituximab-sensitive and resistant cells
CD20 = biological target: T1, CD20 (Homo sapiens, UniProt P11836); conditions: Asp101 instead of Asn101 in CDR3 of variable heavy chain, versus rituximab CDRs
T1 sequence (P11836 1-297): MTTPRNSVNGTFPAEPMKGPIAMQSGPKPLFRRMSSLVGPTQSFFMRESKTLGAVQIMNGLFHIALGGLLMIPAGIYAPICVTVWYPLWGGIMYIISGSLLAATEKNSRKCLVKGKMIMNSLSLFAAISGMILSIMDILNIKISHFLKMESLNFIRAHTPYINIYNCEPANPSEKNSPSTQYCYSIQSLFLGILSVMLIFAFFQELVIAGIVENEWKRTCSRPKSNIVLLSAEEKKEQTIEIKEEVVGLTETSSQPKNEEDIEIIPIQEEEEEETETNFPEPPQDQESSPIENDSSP

[2] = tested on: three human lymphoma cell lines

For “GA101: fully humanized, type II, glycoengineered IgG1 anti-CD20 mAb (Glycart/Roche)”, the “activity in rituximab-resistant cell lines” value ([1]; rituximab-resistant cell lines) is given as “activity”.
In the case of “Ocrelizumab: type I second generation humanized anti-CD20 mAb (Genentech/Roche/Biogen)”, the “ADCC activity compared with rituximab” value (lymphoid malignancies) is given as “increased” and the “CDC activity compared with rituximab” value (lymphoid malignancies) is given as “lower”.
For “Ofatumumab: fully human type I anti-CD20 IgG1kappa mAb (Genmab)”, the “potency compared with rituximab” value ([1]; both rituximab-sensitive and resistant cells) is listed as “more potent than rituximab”.
For “Veltuzumab: humanized, type I anti-CD20 IgG1 mAb with CDRs identical to rituximab except Asp101 instead of Asn101”, the off-rates (CD20) is listed as “significantly slower” and the CDC cytotoxicity [2] is listed as “increased”.
